According to ChEMBL document CHEMBL5291721, “A preclinical secondary pharmacology resource illuminates target-adverse drug reaction associations of marketed drugs” (Nat Commun, 2023):

How the values were obtained:
[1] = molecular target: T1, Type-2 angiotensin II receptor (Homo sapiens, UniProt P50052); type: functional
[2] = molecular target: Voltage-dependent L-type calcium channel subunit alpha-1C (Homo sapiens, UniProt Q13936); type: functional, cell-based
[3] = molecular target: Sodium-dependent serotonin transporter (Homo sapiens, UniProt P31645)
[4] = molecular target: T2, Muscarinic acetylcholine receptor M1 (Homo sapiens, UniProt P11229)
T2 sequence (P11229 whole entry): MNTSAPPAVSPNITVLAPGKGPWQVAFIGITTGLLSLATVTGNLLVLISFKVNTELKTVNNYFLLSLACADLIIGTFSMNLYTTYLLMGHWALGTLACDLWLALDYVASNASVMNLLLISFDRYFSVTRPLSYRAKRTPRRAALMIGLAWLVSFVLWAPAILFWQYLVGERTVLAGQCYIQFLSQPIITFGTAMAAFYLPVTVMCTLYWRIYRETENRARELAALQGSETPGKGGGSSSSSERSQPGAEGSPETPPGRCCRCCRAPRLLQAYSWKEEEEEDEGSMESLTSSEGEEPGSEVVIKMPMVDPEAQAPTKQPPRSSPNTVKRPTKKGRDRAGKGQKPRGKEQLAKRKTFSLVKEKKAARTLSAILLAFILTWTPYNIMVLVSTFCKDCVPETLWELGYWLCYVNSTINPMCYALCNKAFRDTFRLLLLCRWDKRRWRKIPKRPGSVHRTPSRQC

[5] = molecular target: T2, Muscarinic acetylcholine receptor M1; type: functional, cell-based
[6] = molecular target: T2, Muscarinic acetylcholine receptor M1; type: functional, cell-based; remark: listed apart in the source
[7] = molecular target: Hydroxycarboxylic acid receptor 2 (Homo sapiens, UniProt Q8TDS4)
[8] = molecular target: T3, Type-1 angiotensin II receptor (Homo sapiens, UniProt P30556)
T3 sequence (P30556 whole entry): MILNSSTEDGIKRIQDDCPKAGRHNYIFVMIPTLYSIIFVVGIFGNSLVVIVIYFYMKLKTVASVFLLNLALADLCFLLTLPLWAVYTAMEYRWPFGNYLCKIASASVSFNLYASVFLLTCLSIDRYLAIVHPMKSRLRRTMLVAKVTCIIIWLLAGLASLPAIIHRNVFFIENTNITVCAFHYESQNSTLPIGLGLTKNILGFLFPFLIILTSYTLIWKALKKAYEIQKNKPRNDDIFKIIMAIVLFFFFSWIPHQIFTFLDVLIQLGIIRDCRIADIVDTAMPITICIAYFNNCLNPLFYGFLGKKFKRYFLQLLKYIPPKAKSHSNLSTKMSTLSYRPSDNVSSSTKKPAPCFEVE

D(1A) dopamine receptor = D(1A) dopamine receptor (Homo sapiens, UniProt P21728); type: functional, cell-based
[9] = molecular target: 5-hydroxytryptamine receptor 2B (Homo sapiens, UniProt P41595)
[10] = molecular target: T3, Type-1 angiotensin II receptor; remark: listed apart in the source
[11] = molecular target: T1, Type-2 angiotensin II receptor; type: functional; remark: listed apart in the source
Note: assay procedure not described here.

T1 sequence (P50052 whole entry): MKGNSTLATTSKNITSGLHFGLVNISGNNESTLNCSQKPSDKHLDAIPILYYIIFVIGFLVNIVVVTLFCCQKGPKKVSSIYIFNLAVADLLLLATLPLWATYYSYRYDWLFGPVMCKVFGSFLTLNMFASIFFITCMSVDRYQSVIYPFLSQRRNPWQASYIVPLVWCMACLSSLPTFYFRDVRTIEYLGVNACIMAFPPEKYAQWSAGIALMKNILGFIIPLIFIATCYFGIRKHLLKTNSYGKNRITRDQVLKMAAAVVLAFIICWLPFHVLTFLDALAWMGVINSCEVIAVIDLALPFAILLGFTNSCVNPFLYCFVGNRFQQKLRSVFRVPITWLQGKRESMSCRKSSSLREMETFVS
5-hydroxytryptamine receptor 2B, sequence (P41595 whole entry): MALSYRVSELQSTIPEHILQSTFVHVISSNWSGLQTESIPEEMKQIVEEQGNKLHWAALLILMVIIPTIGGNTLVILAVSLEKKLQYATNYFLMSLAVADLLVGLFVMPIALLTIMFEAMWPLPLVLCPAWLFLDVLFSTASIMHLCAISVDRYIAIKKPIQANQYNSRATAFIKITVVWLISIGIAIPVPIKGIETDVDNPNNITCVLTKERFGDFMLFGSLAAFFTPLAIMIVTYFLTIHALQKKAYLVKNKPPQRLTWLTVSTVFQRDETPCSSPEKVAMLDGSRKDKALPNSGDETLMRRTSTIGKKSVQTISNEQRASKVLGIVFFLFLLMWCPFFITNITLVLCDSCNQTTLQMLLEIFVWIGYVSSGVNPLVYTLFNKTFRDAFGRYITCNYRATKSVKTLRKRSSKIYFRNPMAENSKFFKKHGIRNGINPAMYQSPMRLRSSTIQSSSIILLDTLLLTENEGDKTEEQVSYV
Sodium-dependent serotonin transporter, sequence (P31645 whole entry): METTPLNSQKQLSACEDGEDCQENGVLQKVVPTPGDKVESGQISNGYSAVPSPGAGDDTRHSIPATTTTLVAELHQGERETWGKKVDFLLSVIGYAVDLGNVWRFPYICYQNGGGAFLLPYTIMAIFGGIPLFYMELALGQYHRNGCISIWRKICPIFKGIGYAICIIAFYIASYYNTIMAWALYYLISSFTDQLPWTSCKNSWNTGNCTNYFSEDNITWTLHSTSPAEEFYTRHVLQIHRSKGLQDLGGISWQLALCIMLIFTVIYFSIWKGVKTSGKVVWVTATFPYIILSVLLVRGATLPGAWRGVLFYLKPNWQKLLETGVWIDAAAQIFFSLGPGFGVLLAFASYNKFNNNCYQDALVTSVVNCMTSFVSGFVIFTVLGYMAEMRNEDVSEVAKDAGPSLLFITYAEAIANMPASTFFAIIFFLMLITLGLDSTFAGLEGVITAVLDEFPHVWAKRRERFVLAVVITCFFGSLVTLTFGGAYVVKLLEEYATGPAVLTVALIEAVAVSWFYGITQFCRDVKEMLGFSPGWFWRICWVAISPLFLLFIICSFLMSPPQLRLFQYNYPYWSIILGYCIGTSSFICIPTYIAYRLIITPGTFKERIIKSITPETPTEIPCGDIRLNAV
Voltage-dependent L-type calcium channel subunit alpha-1C, sequence (Q13936 whole entry): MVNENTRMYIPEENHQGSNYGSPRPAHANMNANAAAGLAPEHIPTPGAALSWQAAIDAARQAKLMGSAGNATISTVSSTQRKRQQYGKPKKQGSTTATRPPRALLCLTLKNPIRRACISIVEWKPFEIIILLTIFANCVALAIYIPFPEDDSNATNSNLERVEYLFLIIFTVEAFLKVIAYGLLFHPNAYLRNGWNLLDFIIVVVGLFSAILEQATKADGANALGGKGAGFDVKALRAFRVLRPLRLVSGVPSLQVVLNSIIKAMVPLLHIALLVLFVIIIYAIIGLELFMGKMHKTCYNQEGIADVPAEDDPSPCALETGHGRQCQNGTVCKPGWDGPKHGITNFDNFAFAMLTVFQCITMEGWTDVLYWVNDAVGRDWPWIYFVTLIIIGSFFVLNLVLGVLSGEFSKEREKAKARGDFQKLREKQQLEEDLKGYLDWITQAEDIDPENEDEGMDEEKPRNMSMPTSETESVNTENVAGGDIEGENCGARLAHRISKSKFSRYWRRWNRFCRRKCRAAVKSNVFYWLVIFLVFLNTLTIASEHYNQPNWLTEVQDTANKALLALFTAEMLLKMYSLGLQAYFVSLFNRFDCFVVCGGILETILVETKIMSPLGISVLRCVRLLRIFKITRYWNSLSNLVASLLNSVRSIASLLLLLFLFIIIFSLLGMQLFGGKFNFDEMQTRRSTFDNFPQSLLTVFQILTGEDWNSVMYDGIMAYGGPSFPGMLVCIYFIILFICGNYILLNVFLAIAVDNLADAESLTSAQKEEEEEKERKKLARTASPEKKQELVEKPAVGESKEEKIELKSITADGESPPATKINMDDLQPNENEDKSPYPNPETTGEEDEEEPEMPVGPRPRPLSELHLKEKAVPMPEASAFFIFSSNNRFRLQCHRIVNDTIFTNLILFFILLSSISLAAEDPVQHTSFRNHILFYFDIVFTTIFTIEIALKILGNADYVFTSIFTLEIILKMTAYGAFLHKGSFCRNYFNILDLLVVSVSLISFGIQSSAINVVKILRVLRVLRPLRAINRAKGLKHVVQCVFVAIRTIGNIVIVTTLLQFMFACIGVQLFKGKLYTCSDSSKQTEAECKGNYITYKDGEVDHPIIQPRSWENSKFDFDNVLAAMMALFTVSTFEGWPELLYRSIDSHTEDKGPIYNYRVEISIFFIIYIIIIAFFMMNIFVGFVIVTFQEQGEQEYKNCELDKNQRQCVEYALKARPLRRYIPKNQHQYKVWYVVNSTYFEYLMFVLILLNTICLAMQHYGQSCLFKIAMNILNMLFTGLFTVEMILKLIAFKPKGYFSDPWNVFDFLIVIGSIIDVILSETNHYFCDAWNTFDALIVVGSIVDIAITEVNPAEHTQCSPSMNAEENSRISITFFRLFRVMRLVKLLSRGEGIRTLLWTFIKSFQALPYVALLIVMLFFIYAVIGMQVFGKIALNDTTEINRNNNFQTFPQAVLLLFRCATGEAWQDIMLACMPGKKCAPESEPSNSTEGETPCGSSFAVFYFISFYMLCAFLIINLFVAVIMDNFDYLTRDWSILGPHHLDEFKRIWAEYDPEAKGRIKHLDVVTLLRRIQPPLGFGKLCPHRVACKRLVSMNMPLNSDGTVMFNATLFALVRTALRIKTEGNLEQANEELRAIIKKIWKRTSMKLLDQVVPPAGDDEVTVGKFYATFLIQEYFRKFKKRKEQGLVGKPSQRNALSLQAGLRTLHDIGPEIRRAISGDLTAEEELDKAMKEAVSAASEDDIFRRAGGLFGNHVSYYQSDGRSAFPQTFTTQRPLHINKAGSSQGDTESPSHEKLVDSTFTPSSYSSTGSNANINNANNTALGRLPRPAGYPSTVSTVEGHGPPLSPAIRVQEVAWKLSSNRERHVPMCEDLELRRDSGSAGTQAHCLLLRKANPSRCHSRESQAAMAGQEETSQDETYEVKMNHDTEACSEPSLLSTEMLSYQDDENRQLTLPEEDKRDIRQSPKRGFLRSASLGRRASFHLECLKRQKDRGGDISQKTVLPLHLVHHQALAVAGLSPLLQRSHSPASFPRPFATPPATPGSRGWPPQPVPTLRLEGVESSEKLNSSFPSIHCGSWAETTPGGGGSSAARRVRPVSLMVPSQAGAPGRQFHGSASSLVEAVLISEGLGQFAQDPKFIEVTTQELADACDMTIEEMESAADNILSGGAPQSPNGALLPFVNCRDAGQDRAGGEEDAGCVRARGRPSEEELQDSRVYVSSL
Hydroxycarboxylic acid receptor 2, sequence (Q8TDS4 whole entry): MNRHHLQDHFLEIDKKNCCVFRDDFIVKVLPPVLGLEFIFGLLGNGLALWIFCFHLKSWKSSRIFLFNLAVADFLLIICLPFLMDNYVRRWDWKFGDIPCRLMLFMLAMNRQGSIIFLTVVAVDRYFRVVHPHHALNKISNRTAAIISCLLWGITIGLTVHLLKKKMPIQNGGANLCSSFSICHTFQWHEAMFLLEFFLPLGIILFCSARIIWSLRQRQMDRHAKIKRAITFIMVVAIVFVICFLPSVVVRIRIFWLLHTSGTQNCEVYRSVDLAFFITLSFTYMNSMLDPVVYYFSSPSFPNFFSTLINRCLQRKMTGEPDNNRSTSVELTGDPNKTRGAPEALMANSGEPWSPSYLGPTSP
D(1A) dopamine receptor, sequence (P21728 whole entry): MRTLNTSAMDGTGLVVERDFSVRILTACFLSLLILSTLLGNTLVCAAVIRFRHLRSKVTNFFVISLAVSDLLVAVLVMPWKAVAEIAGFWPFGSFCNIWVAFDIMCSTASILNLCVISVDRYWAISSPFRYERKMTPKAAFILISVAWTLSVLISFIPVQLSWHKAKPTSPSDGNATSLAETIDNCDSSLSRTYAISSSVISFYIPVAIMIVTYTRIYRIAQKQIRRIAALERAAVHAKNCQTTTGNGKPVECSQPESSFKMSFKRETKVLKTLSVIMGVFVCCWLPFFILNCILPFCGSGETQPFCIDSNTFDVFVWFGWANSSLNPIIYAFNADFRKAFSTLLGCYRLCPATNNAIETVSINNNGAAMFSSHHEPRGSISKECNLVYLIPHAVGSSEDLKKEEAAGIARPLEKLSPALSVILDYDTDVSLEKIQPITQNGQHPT

CC(CCc1ccc(O)cc1)NCCc1ccc(O)c(O)c1 (configuration not stated) [DOBUTAMINE]
AC50 [1]: > 100 µM

OC1(c2ccc(Cl)cc2)c2ccccc2C2=NCCN21 (configuration not stated) [MAZINDOL]
AC50 [2]: > 50 µM | AC50 [3]: 0.23 µM

O=[N+]([O-])c1ccc(O)c2ncccc12 [NITROXOLINE]
AC50 [4]: > 30 µM

CC1OC2(CS1)CN1CCC2CC1 (configuration not stated) [CEVIMELINE]
AC50 [5]: > 30 µM | AC50 [6]: 19 µM

CCC(=O)O[C@]1(C(=O)SCF)[C@H](C)C[C@H]2[C@@H]3C[C@H](F)C4=CC(=O)C=C[C@]4(C)[C@@]3(F)[C@@H](O)C[C@@]21C [FLUTICASONE PROPIONATE]
AC50 [7]: > 10 µM

CC(C)NCC(O)c1ccc(O)c(O)c1 (configuration not stated) [ISOPROTERENOL]
AC50 [8]: > 100 µM

Cc1cc(C(C)(C)C)cc(C)c1CC1=NCCN1 [XYLOMETAZOLINE]
AC50 (D(1A) dopamine receptor): > 30 µM

CCCN[C@H]1CCc2nc(N)sc2C1 [PRAMIPEXOLE]
AC50 [9]: 18.4 µM

CCCc1nc(C(C)(C)O)c(C(=O)O)n1Cc1ccc(-c2ccccc2-c2nnn[nH]2)cc1 [OLMESARTAN]
AC50 [10]: 0.0008 µM | AC50 [11]: 54 µM
